Reference: the supplement of paper PMC12463676, “Small-molecule dissolution of stress granules by redox modulation benefits ALS models” (Nature Chemical Biology, 2025)

Tests used:
lipoamide = compound: NC(=O)CCCCC1CCSS1 [lipoamide]; assay: thermal stability z-score vs DMSO; higher = more thermally stabilized by treatment; details: HeLa, lipoamide concentration 100 µM
Experimental: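 Cellular thermal proteome profiling in HeLa cells. Cells were treated with 100 µM lipoamide for 1 h, with or without 1 mM arsenate for a further 1 h, then heated to ten temperatures (37-66.3 °C), and soluble protein was quantified by TMT mass spectrometry relative to 0.1% DMSO controls. The thermal stability score (sum of log2 fold changes minus the abundance score) was transformed to a z-score; mean of n = 3 experiments.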

potassium arsenate = compound: O=[As]([O-])(O)O.[K+] [potassium arsenate]; assay: as above; details: HeLa; arsenate concentration 1 mM
Experimental: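 Cellular thermal proteome profiling in HeLa cells treated with 1 mM arsenate for 1 h (DMSO pretreatment), heated to ten temperatures (37-66.3 °C). Soluble protein was quantified by TMT mass spectrometry relative to DMSO controls; the thermal stability score was transformed to a z-score; mean of n = 3 experiments.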

[1] = arsenate co-treatment: 1 mM arsenate 1 h
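Note: each temperature applied for 3 min, abundance score taken as mean log2 fold change at the two lowest temperatures, z-score obtained by mean subtraction and division by SD.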

Sequence of UniProt Q9H9A6 (Q9H9A6 whole entry): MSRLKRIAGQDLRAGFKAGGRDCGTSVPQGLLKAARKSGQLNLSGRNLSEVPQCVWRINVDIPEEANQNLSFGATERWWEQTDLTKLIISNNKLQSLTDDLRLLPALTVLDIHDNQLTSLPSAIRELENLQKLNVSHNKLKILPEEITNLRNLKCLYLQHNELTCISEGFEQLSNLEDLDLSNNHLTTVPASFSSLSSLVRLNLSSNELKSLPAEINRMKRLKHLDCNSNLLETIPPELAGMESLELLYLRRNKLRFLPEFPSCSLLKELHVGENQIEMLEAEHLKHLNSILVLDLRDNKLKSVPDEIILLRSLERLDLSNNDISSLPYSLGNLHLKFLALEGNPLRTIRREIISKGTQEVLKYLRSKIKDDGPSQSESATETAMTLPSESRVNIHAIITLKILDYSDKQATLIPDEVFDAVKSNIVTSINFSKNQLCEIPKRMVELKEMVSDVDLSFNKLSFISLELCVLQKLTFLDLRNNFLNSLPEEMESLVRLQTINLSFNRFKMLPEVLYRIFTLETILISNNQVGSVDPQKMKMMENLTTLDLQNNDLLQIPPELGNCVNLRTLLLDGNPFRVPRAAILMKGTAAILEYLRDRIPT
Sequence of UniProt Q5SSJ5 (Q5SSJ5 whole entry): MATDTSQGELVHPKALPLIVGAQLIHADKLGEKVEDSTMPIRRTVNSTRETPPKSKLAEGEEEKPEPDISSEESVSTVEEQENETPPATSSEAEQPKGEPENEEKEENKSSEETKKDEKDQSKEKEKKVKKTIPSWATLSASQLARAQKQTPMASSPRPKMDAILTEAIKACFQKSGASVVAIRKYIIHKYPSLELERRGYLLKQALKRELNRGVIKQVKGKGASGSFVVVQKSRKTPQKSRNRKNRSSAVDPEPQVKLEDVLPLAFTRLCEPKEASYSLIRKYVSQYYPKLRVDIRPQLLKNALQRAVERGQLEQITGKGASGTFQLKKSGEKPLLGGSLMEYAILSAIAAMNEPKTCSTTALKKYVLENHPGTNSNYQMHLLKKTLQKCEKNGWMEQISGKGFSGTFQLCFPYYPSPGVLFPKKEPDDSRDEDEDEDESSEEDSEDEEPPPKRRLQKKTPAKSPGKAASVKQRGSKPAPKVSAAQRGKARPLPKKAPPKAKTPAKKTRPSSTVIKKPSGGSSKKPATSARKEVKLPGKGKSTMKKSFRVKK
Sequence of UniProt P62820 (P62820 whole entry): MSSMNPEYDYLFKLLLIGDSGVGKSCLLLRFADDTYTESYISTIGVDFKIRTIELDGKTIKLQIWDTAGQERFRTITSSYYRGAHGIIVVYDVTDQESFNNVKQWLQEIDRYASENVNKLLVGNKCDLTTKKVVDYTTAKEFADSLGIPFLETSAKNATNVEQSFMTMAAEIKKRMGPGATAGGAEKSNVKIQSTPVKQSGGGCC
Sequence of UniProt P30039 (P30039 whole entry): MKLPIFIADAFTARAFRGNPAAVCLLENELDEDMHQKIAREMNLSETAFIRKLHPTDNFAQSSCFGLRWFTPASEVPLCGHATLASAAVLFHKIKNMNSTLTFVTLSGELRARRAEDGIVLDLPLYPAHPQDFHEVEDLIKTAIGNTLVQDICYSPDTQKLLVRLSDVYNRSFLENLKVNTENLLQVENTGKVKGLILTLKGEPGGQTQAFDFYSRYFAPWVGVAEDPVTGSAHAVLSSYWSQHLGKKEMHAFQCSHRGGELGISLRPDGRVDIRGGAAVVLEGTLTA
Sequence of UniProt P36551 (P36551 whole entry): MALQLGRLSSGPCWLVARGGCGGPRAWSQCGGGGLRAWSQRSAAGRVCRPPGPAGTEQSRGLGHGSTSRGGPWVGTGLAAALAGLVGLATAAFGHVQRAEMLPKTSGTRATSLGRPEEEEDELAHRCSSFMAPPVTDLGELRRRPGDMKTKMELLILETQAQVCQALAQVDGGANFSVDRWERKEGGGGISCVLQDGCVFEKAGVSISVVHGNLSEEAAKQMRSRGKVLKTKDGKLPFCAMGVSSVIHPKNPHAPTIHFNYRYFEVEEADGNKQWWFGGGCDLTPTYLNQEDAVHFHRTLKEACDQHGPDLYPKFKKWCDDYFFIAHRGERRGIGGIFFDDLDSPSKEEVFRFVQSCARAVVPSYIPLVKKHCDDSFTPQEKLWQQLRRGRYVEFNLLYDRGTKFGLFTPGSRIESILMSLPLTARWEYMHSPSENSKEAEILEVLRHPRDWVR
Sequence of UniProt Q8WU79 (Q8WU79 whole entry): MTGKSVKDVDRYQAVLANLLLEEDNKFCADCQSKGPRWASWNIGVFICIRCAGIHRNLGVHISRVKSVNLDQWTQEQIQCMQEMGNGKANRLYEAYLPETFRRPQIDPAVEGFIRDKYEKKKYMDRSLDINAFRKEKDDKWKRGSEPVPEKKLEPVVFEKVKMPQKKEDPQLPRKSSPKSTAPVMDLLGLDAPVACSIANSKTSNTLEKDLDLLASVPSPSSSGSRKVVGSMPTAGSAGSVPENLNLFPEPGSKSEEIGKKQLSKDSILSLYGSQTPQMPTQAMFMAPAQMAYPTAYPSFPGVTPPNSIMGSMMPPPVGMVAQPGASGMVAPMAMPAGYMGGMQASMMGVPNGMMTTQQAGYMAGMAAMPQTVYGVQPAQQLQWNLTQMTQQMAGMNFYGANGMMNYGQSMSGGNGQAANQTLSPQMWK
Sequence of UniProt Q68D91 (Q68D91 whole entry): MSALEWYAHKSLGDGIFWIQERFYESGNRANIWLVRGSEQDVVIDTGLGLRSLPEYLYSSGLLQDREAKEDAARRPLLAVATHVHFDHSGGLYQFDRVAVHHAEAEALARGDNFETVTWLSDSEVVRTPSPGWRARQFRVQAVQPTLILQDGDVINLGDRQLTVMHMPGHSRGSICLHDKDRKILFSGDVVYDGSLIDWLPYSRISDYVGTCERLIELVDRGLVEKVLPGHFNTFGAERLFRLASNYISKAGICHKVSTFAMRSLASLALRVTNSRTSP
Sequence of UniProt Q8TF68 (Q8TF68 whole entry): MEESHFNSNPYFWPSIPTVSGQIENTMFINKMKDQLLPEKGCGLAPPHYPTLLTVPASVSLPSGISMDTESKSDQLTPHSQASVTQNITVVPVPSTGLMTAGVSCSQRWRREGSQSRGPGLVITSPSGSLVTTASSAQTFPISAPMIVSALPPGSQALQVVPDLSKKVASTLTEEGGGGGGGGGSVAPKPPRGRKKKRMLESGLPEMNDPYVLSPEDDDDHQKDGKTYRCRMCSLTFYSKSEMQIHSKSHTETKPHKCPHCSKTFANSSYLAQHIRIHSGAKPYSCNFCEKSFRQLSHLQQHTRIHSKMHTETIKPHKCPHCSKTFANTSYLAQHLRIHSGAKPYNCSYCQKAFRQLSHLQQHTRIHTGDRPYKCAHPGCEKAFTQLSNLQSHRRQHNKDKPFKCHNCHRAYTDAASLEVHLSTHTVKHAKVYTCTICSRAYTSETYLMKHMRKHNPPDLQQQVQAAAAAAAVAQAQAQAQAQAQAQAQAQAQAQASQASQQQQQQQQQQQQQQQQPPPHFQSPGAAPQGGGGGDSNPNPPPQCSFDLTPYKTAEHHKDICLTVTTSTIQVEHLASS
Sequence of UniProt Q9Y296 (Q9Y296 whole entry): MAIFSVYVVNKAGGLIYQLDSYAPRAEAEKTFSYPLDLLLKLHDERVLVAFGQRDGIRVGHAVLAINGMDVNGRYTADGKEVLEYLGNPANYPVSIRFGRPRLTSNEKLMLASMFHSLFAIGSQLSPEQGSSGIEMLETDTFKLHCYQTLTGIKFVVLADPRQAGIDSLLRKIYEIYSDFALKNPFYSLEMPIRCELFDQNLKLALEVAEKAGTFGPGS
Sequence of UniProt Q9H3C7 (Q9H3C7 whole entry): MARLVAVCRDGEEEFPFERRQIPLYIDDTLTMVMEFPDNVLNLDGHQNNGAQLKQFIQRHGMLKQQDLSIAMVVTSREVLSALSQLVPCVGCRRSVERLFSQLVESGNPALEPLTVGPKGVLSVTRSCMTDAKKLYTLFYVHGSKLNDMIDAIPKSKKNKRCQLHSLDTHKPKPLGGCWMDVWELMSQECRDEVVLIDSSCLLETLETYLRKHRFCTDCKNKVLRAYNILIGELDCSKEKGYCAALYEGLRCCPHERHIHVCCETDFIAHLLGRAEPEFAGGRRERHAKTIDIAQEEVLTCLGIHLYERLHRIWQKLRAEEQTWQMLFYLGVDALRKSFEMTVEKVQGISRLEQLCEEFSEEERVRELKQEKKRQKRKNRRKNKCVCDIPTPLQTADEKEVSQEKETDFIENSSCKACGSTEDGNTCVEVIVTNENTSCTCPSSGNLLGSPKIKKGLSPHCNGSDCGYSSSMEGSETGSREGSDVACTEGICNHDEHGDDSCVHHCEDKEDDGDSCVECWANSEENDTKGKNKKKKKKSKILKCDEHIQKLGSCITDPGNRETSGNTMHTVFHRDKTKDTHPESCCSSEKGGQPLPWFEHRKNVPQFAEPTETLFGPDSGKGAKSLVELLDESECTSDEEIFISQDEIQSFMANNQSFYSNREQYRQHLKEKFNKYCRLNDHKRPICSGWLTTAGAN
Sequence of UniProt O75663 (O75663 whole entry): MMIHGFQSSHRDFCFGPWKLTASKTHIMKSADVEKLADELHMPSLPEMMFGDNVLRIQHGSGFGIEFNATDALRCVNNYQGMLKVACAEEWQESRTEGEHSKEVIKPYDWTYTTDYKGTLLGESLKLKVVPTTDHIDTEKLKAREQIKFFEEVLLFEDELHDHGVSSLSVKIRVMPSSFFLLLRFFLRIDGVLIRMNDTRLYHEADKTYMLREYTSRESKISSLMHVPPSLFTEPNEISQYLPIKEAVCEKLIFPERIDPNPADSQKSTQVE
Sequence of UniProt P48509 (P48509 whole entry): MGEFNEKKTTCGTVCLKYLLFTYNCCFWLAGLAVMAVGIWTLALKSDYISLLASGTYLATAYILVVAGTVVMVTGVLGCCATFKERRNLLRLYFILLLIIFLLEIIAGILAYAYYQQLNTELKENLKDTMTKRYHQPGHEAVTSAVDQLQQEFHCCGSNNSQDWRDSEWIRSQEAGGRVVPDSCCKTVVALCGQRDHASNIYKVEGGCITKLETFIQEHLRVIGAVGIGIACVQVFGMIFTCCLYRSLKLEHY

Target	thermal stability z-score (lipoamide; [1])	thermal stability z-score (lipoamide; arsenate co-treatment: none)	thermal stability z-score (potassium arsenate)
HAUS2 (UniProt Q9NVX0)	-0.143	-0.261	0.0695
MARS2 (UniProt Q96GW9)	0.482	0.957	0.992
HP1BP3 (UniProt Q5SSJ5)	-0.693	-0.792	-1.08
TMEM56 (UniProt Q96MV1)	0.138	1.15	0.953
LRRC40 (UniProt Q9H9A6)	-0.119	0.108	0.245
ATP6V1E1 (UniProt P36543)	0.0691	-0.201	0.637
MRPS27 (UniProt Q92552)	-0.204	-0.193	0.189
MAP7D3 (UniProt Q8IWC1)	-0.18	-0.509	-1.36
PPP2R2D (UniProt Q66LE6)	-0.473	-0.0425	0.0879
CNNM4 (UniProt Q6P4Q7)	0.923	0.49	0.213
E2F3 (UniProt O00716)	-0.295	-0.154	-0.342
TRMT11 (UniProt Q7Z4G4)	0.259	-0.151	-0.518
MYBBP1A (UniProt Q9BQG0)	1.21	0.675	-1.35
AGL (UniProt P35573)	0.414	0.398	0.0621
AP3B1 (UniProt O00203)	-0.0343	0.0807	0.404
FRYL (UniProt O94915)	-0.0982	0.156	0.161
VPS11 (UniProt Q9H270)	-0.214	-0.578	0.734
ZNF384 (UniProt Q8TF68)	-0.017	0.00673	-0.241
RSBN1 (UniProt Q5VWQ0)	-0.421	-0.198	-0.387
MBLAC2 (UniProt Q68D91)	-0.0603	0.367	0.708
LMBRD1 (UniProt Q9NUN5)	-0.626	-0.635	0.252
MARCKS (UniProt P29966)	0.62	0.121	0.943
FBXL20 (UniProt Q96IG2)	-1.2	-1.06	-0.992
IFIT3 (UniProt O14879)	0.00563	-0.0242	-0.0781

Target	thermal stability z-score (lipoamide; [1])	thermal stability z-score (lipoamide; arsenate co-treatment: none)	thermal stability z-score (potassium arsenate)
RPL6 (UniProt Q02878)	0.349	0.0467	-0.92
CASP7 (UniProt P55210)	0.596	0.147	-0.753
XPO1 (UniProt O14980)	0.211	0.4	1.4
EFL1 (UniProt Q7Z2Z2)	-0.245	0.0406	0.402
KIAA1468 (UniProt Q9P260)	0.284	0.0862	-0.0466
CPSF2 (UniProt Q9P2I0)	-0.00974	-0.136	-0.339
RANBP10 (UniProt Q6VN20)	0.521	0.385	0.3
MOCS3 (UniProt O95396)	0.01	-0.0171	-0.0988
UBAP1 (UniProt Q9NZ09)	-1.2	-0.177	-0.964
CD151 (UniProt P48509)	1.24	0.682	0.131
MTHFD2 (UniProt P13995)	-1.43	0.0012	0.474
VAC14 (UniProt Q08AM6)	-0.483	-0.0923	-0.61
ZNF593 (UniProt O00488)	4.3	2.19	-6.67
CRYBG3 (UniProt Q68DQ2)	-0.828	0.00468	-0.00726
NDUFS7 (UniProt O75251)	0.142	0.157	0.149
SHMT1 (UniProt P34896)	0.374	-0.0345	0.764
RPL12 (UniProt P30050)	0.344	0.0511	-0.459
PIK3R3 (UniProt Q92569)	0.191	-0.186	0.0593
HUWE1 (UniProt Q7Z6Z7)	-0.216	0.0195	0.187
RFT1 (UniProt Q96AA3)	-0.878	-0.767	-0.609
SMAP2 (UniProt Q8WU79)	-1.95	-0.774	-1.45
FASTKD2 (UniProt Q9NYY8)	-0.22	0.158	0.445
MRPS26 (UniProt Q9BYN8)	0.609	0.375	0.123
COQ5 (UniProt Q5HYK3)	0.471	0.639	1.52

Target	thermal stability z-score (lipoamide; [1])	thermal stability z-score (lipoamide; arsenate co-treatment: none)	thermal stability z-score (potassium arsenate)
GGNBP2 (UniProt Q9H3C7)	0.141	0.168	-1.84
TRAPPC4 (UniProt Q9Y296)	-0.271	0.0129	-0.0725
TIPRL (UniProt O75663)	-0.215	-0.0559	0.122
KCTD3 (UniProt Q9Y597)	0.366	0.263	-0.15
RAB1A (UniProt P62820)	0.28	0.338	0.312
PBLD (UniProt P30039)	-0.0252	-0.218	-0.578
GPATCH8 (UniProt Q9UKJ3)	1.48	0.761	-0.238
TM9SF2 (UniProt Q99805)	-0.509	-0.486	1.03
CPOX (UniProt P36551)	0.526	-0.338	-0.525
SNAP47 (UniProt Q5SQN1)	-0.303	-0.252	-0.104
PHLDB2 (UniProt Q86SQ0)	-1.07	-0.89	-0.277
AFG3L2 (UniProt Q9Y4W6)	-0.688	-0.0469	-0.123
DYRK1A (UniProt Q13627)	-0.118	-0.0216	0.54
LXN (UniProt Q9BS40)	0.274	0.0402	0.992
DPCD (UniProt Q9BVM2)	-0.929	-0.513	0.0166
RABEP1 (UniProt Q15276)	-0.36	-0.194	0.182
UBE2I (UniProt P63279)	-0.334	0.315	0.137
SUB1 (UniProt P53999)	0.206	0.0783	0.0838
CISD2 (UniProt Q8N5K1)	0.556	0.316	-0.581
WDR33 (UniProt Q9C0J8)	0.0589	-0.0858	-0.105
CSPG4 (UniProt Q6UVK1)	-0.203	-0.907	-0.945
HECTD4 (UniProt Q9Y4D8)	-0.345	0.341	0.284
NUP160 (UniProt Q12769)	0.198	0.123	1.01
